In PubChem BioAssay AID463180 (University of Pittsburgh Molecular Library Screening Center, 2010) one finds inhibition data, which are given here for 90 molecules.

Each structure is given as a SMILES string. Calls of active or inactive are those of the source. No rule for the calls is given here.

This assay deals with Furin (Homo sapiens) (UniProt P09958). Description: furin substrate cleavage inhibition retest – biochemical, fluorescence intensity, confirmation (AID 463180). The conditions noted are these: Recombinant furin, fluorogenic substrate cleavage, at 50 µM, active compounds read high.
Chain of Furin (Homo sapiens) (P09958 108-714 limits assumed): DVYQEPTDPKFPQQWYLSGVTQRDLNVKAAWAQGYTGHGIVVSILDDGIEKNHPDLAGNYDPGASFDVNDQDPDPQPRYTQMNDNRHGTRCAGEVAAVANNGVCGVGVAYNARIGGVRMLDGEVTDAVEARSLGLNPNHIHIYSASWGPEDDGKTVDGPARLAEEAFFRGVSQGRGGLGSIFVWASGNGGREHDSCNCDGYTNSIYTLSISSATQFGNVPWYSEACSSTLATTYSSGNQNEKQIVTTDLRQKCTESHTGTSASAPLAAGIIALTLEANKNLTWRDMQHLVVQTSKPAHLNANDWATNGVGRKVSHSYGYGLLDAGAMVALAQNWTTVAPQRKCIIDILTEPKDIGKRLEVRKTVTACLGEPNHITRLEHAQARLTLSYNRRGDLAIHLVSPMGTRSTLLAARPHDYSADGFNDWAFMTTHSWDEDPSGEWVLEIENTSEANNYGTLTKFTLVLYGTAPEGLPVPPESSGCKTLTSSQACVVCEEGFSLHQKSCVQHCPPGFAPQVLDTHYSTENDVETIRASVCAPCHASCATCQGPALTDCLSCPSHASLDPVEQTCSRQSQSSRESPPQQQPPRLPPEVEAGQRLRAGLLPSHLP
For the molecule `CCCC(=O)Nc1cccc(Oc2nc(C)cc(C)c2C#N)c1`, the inhibition was -3.32% (inactive). With `COc1cccc(-n2nnc3c(=O)n(Cc4ccccc4Cl)cnc32)c1` the figure was -14.9% (inactive). The value for `COc1ccc(S(=O)(=O)Nc2cc(C(C)C)c(O)cc2C)cc1` was -20.4% (inactive); that for `COc1ccccc1C(=O)NC(C)C(c1cccs1)N1CCOCC1` (stereo not given) was -25.9% (inactive); that for `COc1ccc(NC(=O)Nc2ncn(Cc3cccc(C(F)(F)F)c3)n2)cc1OC` was -15.8% (inactive). The value for `O=C(CCN1C(=O)c2ccccc2C1=O)N(CCO)Cc1ccccc1` was -16.7% (inactive); that for `CCOC(=O)C(CC)Sc1nc2c(c(=O)[nH]c(=O)n2C)n1C/C=C(/C)Cl` (stereo not given) was -19.2% (inactive). Regarding `COC(=O)C1C(=O)/C(=C/N(C)C)C(=O)CC1(C)C` (stereo not given), the inhibition is 4.91% (inactive). As for `Cc1ccccc1-n1c(O)c(C=Nc2ccc(N(C)C)cc2)c(=O)[nH]c1=O`, the inhibition is 20.3%.

Regarding `Cc1c(NC(=O)c2ccc(Cl)c(S(=O)(=O)N3CCOCC3)c2)c(=O)n(-c2ccccc2)n1C`, the inhibition was -23.3% (inactive). With `O=C1CC(N2CCC(c3nc4ccccc4o3)CC2)C(=O)N1Cc1cccs1` (stereo not given) the figure was -13.2% (inactive); with `Cc1cc(N=CC2=C(O)CCCC2=O)no1`, -4.93% (inactive). The value for `CCCOc1ccc(C2NC(=O)NC2=O)cc1` (stereo not given) was -10.8% (inactive); that for `O=C(CN1C(=O)c2ccccc2C1=O)Nc1sc2c(c1C(=O)NCc1ccco1)CCCC2` was -11.4% (inactive). With `COc1nc(C)ccc1-c1noc(-c2ccccn2)n1` the figure was -16.6% (inactive); with `O=C(Cc1c[nH]c2ccccc12)N1CCc2ccccc21`, -24.6% (inactive).

As to `CCSc1ccccc1C(=O)Nc1nncs1`, the inhibition is -22.6% (inactive).

Regarding `CC(=O)Nc1cc(-c2ccc(Cl)cc2)nn1-c1ccccc1`, the inhibition was -20% (inactive).

For the molecule `OC1C2CN3CCN(C2)CC1(Cc1ccccc1)C3` (stereo not given), the inhibition is -20.6% (inactive).

Consider `CN1CCN(c2ccccc2NC(=O)c2cccc(OCc3ccccc3)c2)CC1`, for which the inhibition was -16% (inactive). The value for `Cc1nc(SCc2ccc(O)c([N+](=O)[O-])c2)n[nH]1` was 0.762% (inactive); that for `Cc1cc(Cl)ccc1OCCCC(=O)N1CCOCC1` was -18.9% (inactive); that for `O=C(c1ccco1)N1CCN(C2CC(=O)N(c3ccc4c(c3)OCO4)C2=O)CC1` (stereo not given) was -17% (inactive). Take `CCOC(=O)NC(=O)CSc1nnnn1-c1ccccc1`: the inhibition is -19.1% (inactive).

Take `O=C(COC(=O)c1ccc[nH]c1=O)NCC1CCCO1` (stereo not given): the inhibition is -31.2% (inactive). In the case of `CC1(C)CC(=O)C(C=Nc2cccnc2/N=C/C2=C(O)CC(C)(C)CC2=O)=C(O)C1`, the inhibition was 0.675% (inactive). As to `CCN1CCS/C1=C/C=C/C1=[N+](CC)CCS1`, the inhibition is 61.3%.

On to `O=C1CC(c2ccccc2)CC(=O)C1=CN1CCCC1` (stereo not given), for which the inhibition was 1.13% (inactive). The value for `CNc1nc(NCCOC23CC4CC(CC(C4)C2)C3)nc(OCC(F)(F)F)n1` was -19.7% (inactive). For `O=C(Nc1ccccc1)N(CCN1CCOCC1)Cc1ccccc1F`, the inhibition is -13% (inactive).

As to `Cn1ncc(Cl)c1C(=O)Nc1cccc(Cl)c1`, the inhibition is -11% (inactive). The value for `Cc1ccc(-n2nc3cc(C)c(NC(=O)c4cccnc4)cc3n2)cc1` was -15.7% (inactive); that for `COc1ccc(N=CC2=C(O)CC(C)(C)CC2=O)cc1` was 8.92% (inactive).

On to `CCOC(=O)c1cc(C)sc1/N=C/C1C(=O)CCCC1=O`, for which the inhibition is -15.3% (inactive).

For `CCCOP(=O)(c1ccc(N(C)C)cc1)C(Nc1ccccc1)c1ccc(N(C)C)cc1` (stereo not given), the inhibition is 31.5%.

For the molecule `CC1(C)CC(=O)C(/C=N/n2cnc3ccccc3c2=O)=C(O)C1`, the inhibition is 7.64% (inactive). With `Cc1cc(N=CC2=C(O)CC(C)(C)CC2=O)no1` the figure was -1.24% (inactive); with `CC1(C)CC(=O)C(/C=N/c2ccccn2)=C(O)C1`, 2.22% (inactive); with `CCOC(=O)C(C(=O)NCC1CCCO1)C1CCCCC1` (stereo not given), -17.6% (inactive). The value for `CCC(Sc1ncccc1C(=O)O)C(=O)N1CCCC1` (stereo not given) was -20.2% (inactive); that for `CCOC(=O)c1cc(C)sc1/N=C/C1=C(O)CCCC1=O` was -5.31% (inactive). The value for `COc1cc(/C=C/C(=O)OCC(=O)NC(=O)NC(C)C)ccc1O` was 3.94% (inactive); that for `COc1cc(S(=O)(=O)Nc2ncccc2C)c(OC)cc1Cl` was -4.1% (inactive). For `COc1ccc(S(=O)(=O)NCCC(=O)NCc2ccc(F)cc2)cc1`, the inhibition was -20.3% (inactive). With `Cc1ccc2nc(/C(C#N)=C/c3cn[nH]c3-c3ccc(F)cc3)[nH]c2c1` the figure was 8.39% (inactive); with `Cc1cccc(/N=C/C2=C(O)CC(C)(C)CC2=O)n1`, 13.1%. The value for `CSc1nc(N)c(N=Nc2ccc([As](=O)(O)O)cc2)c(=O)[nH]1` was 15.9%; that for `CC1(C)CC(=O)C(C=Nc2ccc(Cl)cn2)=C(O)C1` was -4.84% (inactive). With `COc1cc(C(=O)Nc2ccc(-c3nnc(-c4ccco4)o3)cc2)cc(OC)c1OC` the figure was -21% (inactive); with `CCOC(=O)C(CC)Sc1nnc(COc2ccc(C)cc2)n1-c1ccccc1` (stereo not given), -0.94% (inactive).

With `CCOC(=O)c1c(/N=C/C2=C(O)CCCC2=O)sc(C)c1C`, the inhibition is -13.1% (inactive). The value for `COc1ccc(C(=O)NCCN2CCOCC2)cc1OC` was -19.6% (inactive). With `CC(=O)NC(C)c1nc2ccccc2n1Cc1ccccc1F` (stereo not given) the figure was -16.7% (inactive); with `CCNC(=O)C1CC(=O)N(Cc2ccc3c(c2)OCO3)C(=Nc2ccc(F)cc2)S1` (stereo not given), -9.04% (inactive); with `COC(=O)c1[nH]c2cc(OC)ccc2c1NC(=O)CCN1CCCCC1`, -14.9% (inactive). The value for `COC(=O)COc1ccc(S(=O)(=O)NCC2CCCO2)cc1Cl` (stereo not given) was -21.4% (inactive); that for `COc1ccccc1NC(=O)c1cc(S(=O)(=O)N2CCOCC2)ccc1Cl` was -16.1% (inactive). Take `CCn1c(C)c(CCC(=O)O)c(=O)n2nc(-c3ccccc3OC)cc12`: the inhibition is -22.2% (inactive).

In the case of `COC(=O)c1[nH]c2ccccc2c1NC(=O)CN1CCC(C(N)=O)(N2CCCCC2)CC1`, the inhibition was -12.8% (inactive).

With `CCN1CCS/C1=C\C=C\C1=[N+](CC)CCS1`, the inhibition is 63.4%. In the case of `NC(=O)c1ccccc1N/C=C/C(=O)c1ccc(F)cc1`, the inhibition was -9.67% (inactive). For the molecule `CCCCCC(=O)N(CN1C(=O)CCC1=O)c1ccccc1`, the inhibition was -20.9% (inactive).

On to `C=CCn1c(O)c(/C=N/NC(=O)c2ccncc2)c(=O)[nH]c1=O`, for which the inhibition was 5.98% (inactive). The value for `CCCCCCN1C=CC=C/C1=C/C=C(C#N)C#N` was 6.58% (inactive).

Take `O=C1CC(=C2c3ccccc3-c3ccccc32)C(=O)N1CCCCN1CCN(c2ccccc2)CC1`: the inhibition was 9.51% (inactive). With `COC(=O)c1ccc(NC2(C#N)C(=O)Nc3ccccc32)cc1` (stereo not given) the figure was -18.6% (inactive); with `OC(CNCC1CCCO1)Cn1c2ccc(Br)cc2c2cc(Br)ccc21` (stereo not given), -2.62% (inactive); with `COC(=O)c1ccc(Cn2nc(C)c(Cl)c2C)o1`, -14.9% (inactive).

`O=C(NCc1ccccc1)C1COc2ccccc2O1` (stereo not given): the inhibition is -16.5% (inactive). With `CCC(C)C(NC(=O)C1CCC(C)CC1)C(=O)NCc1cccnc1` (stereo not given) the figure was -18.4% (inactive); with `CCn1c(SCC(=O)Nc2cc(F)ccc2C)nnc1-c1ccccc1O`, -18.5% (inactive). The value for `CN1/C(=C\C=C2C(=O)NC(=O)NC2=O)C(C)(C)c2ccccc21` was 1.52% (inactive); that for `CSc1n[nH]c(NCc2ccc(C)cc2)n1` was -16.7% (inactive); that for `O=C(C1Cc2ccccc2CN1S(=O)(=O)c1cccs1)N1CCCCC1` (stereo not given) was -7.18% (inactive). As for `CCCCOc1ccc(-c2ncc(Cl)cn2)cc1`, the inhibition is -14.4% (inactive). For `O=C(CN1C(=O)C2C3C=CC(C3)C2C1=O)NCc1ccc2c(c1)OCO2` (stereo not given), the inhibition is -17.4% (inactive). Take `COc1ccc(/C=N/n2c(=O)[nH]c3c([nH]c4ccc(C)cc43)c2=O)cc1CN1CCOCC1`: the inhibition was -14% (inactive). For the molecule `O=C1C=C(c2ccc(Cl)cc2)OC2(CCCC2)O1`, the inhibition is -10.7% (inactive).

With `CCOC(=O)c1cc(CC)sc1/N=C/C1=C(O)CCCC1=O`, the inhibition is -4.4% (inactive). The value for `CNC(=O)C1CC(=O)N(CCc2ccc(OC)cc2)C(=Nc2ccc(OC)cc2)S1` (stereo not given) was -13.8% (inactive); that for `N#CC1=C(N)NC(SCc2ccc(Br)cc2)=C(C#N)C12CCCCC2` was -6.5% (inactive). With `Cc1ccc(SCCCCN2C(=O)NC(C)(C)C2=O)cc1` the figure was -8.35% (inactive); with `O=C(COc1ccc(Cl)cc1Cl)NC(=O)N1CCOCC1`, -20.4% (inactive). With `Cc1cccc(/C=C2/S/C(=N/N=C3\CC4CCC3(C)C4(C)C)NC2=O)c1` (stereo not given) the figure was 12.3%.

For `Cc1cccc(-n2c(O)c(/C=C/C=Nc3ccccc3)c(=O)[nH]c2=O)c1`, the inhibition was 14.2%. For `CC1(C)CC(=O)C(C=Nc2cccnc2)=C(O)C1`, the inhibition is 21.6%. The value for `COc1ccc(NC(=O)CSc2nncn2C)cc1OC` was -12.4% (inactive); that for `CCCCN1CCC(O)(c2ccccc2)C(C(=O)c2ccccc2)C1` (stereo not given) was -20.5% (inactive). The value for `CCCCCc1nnc(NC(=O)C2CCCO2)s1` (stereo not given) was -22.1% (inactive). The value for `COc1cc(NC(=O)c2ccccc2)c(OC)cc1Cl` was -9.8% (inactive).

The term inhibition denotes the relative decrease from the control value, in per cent.
